Experiment in all cases: DTP human tumour cell line panel, 48 h
For experiment [1], the system named is UO-31 renal.
The subject of experiment [2] is RPMI-8226 leukemia.
For experiment [3], the system named is OVCAR-3 ovarian.
Experiment [4] concerns NCI/ADR-RES ovarian.
Experiment [5] relates to NCI-H23 lung.
Experiment [6] deals with NCI-H522 lung.
The subject of experiment [7] is SF-268 CNS.
Experiment [8] concerns OVCAR-8 ovarian.
The test system of experiment [9] is CCRF-CEM leukemia.
The subject of experiment [10] is HOP-92 NSCLC.

Values joined by “and” are separate entries in the source; they are usually repeats but may differ in a detail not shown here. Identical values can stand only once.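 Assay format: 96-well plates, 48-hour exposure. GI50 is the concentration that inhibits growth by half. At the TGI there is no net growth.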 Bounds are passed on as bounds.

The source of these data is PubChem BioAssay (NCI).

By GI50 is commonly meant the concentration that inhibits growth by half. For orientation: TGI means the concentration at which net growth stops. Read a high TGI as less potent growth arrest. Regarding `O=C(Nc1cccc(-n2cc(-c3ccncc3)c(-c3cc(O)cc(Cl)c3)n2)c1)Nc1ccc(Cl)c(C(F)(F)F)c1`, the GI50 in [1] is 2.1 µM; in [2], 1.95 µM; in experiment [3], 2.34 µM; in experiment [4], 3.4 µM; in [5], 2.58 µM; in experiment [6] it was 1.32 µM. The GI50 in experiment [7] was 3.1 µM; in [8], 2.15 µM; in experiment [9], 2.73 µM. Moreover, the TGI came out at 6.14 µM in experiment [1]; 5.09 µM in [2]; 6.65 µM in [3]; 23.6 µM in [4]; 7.45 µM in experiment [5]; 4.48 µM in experiment [6]. Moreover, the TGI in [7] was found to be 16 µM; in experiment [8], 5.55 µM; in [9] it was 8.93 µM.

Take `CC1(N)CCN(c2cccnc2NC(=O)c2nc(-c3ncccc3C(F)(F)F)cnc2N)CC1`: the GI50 in [1] is 16.6 µM; in experiment [2], 24.4 µM; in experiment [3], 26.2 µM; in experiment [4], 68.7 µM; in [5], 49.5 µM; in [6] it was 15.1 µM. For the same molecule, the GI50 in [7] is 31.5 µM; in experiment [8], 40.2 µM; in experiment [9], 26.9 µM. The TGI in [1] was over 100 µM; in [2] it was over 100 µM; in [3] it was over 100 µM; in [4] it was over 100 µM; in experiment [5], over 100 µM; in experiment [6], 47.9 µM. The TGI in [7], in experiment [8] and in [9] was over 100 µM throughout.

With `NC(=O)c1ccccc1Nc1ccc2nnc(-c3ccncc3)n2n1`, the GI50 in experiment [1] is 4.49 µM; in experiment [2], 3.43 µM; in [3], 13.7 µM; in [4], 14.7 µM; in [5], 15 µM; in experiment [6], 4.46 µM. Moreover, the GI50 in experiment [7] was 5.56 µM; in experiment [8], 8.07 µM; in [9] it was 3.12 µM. The TGI in [1] was 17.6 µM; in [2], 17.4 µM; in experiment [3] it was 26.6 µM; in experiment [4], 44.7 µM; in experiment [5] it was 40.4 µM; in experiment [6] it was 18 µM. Also, the TGI was determined as 21 µM in experiment [7], 31.5 µM in [8] and 17.4 µM in experiment [9].

For `COc1ccc(-c2nc(/C=N/Nc3cc(C)nc4ccc(Cl)cc34)c(C)o2)cc1`, the GI50 is 1.6 µM in [1]; 1.81 µM in experiment [3]; 1.97 µM in [4]; 1.99 µM in experiment [5]; 1.5 µM in [10]; 1.89 µM in [8]. Also, the TGI came out at 3 µM in [1]; 3.27 µM in experiment [3]; 3.95 µM in experiment [4]; 4.09 µM in experiment [5]; 2.98 µM in experiment [10]; 3.91 µM in [8].

On to `COc1cccc(C2=C(c3c(C)n(C)c4ccccc34)C(=O)NC2=O)c1`, for which the GI50 was 14 µM in experiment [1]; over 25 µM in experiment [2]; over 23.9 µM in experiment [3]; 14 µM in experiment [4]; over 25 µM in experiment [5]; 15.3 µM in [6]. Besides, the GI50 in [7] is over 23.1 µM; in [8], over 25 µM; in experiment [9] it was over 25 µM. For the same molecule, the TGI in experiment [1], in experiment [2], in [3], in experiment [4], in [5] and in experiment [6] was over 25 µM throughout. Moreover, the TGI in experiment [7], in experiment [8] and in [9] was over 25 µM in each case.

Turning to `COc1ccc(/C=C/C(=O)c2ccc(O)c(CN3CCN(c4cc5c(cc4F)c(=O)c(C(=O)O)cn5C4CC4)CC3)c2)cc1`, the GI50 in experiment [3] is 1.97 µM; in [4], 4.44 µM; in experiment [5] it was 2.33 µM; in experiment [10], 1.23 µM; in [6], 1.98 µM; in [7] it was 2.32 µM. For the same molecule, the GI50 was 0.644 µM in experiment [8] and 0.805 µM in [9]. The TGI was over 100 µM in experiment [3]; over 100 µM in [4]; over 100 µM in experiment [5]; 6.21 µM in [10]; 28.7 µM in experiment [6]; over 100 µM in experiment [7]. Also, the TGI in [8] and in experiment [9] was over 100 µM in each case.

Consider `CN(C)CCNC(=O)c1cc([N+](=O)[O-])cc2c1Oc1ccccc1O2`, for which the TGI is 33.2 µM in [1]; over 100 µM in experiment [2]; over 100 µM in experiment [3]; over 100 µM in [4]; over 100 µM in experiment [5]; over 100 µM in experiment [6]. The TGI in experiment [7], in [8] and in experiment [9] was over 100 µM throughout.

`COc1cccc2c1ccc1nc3cccc(C(=O)N[C@H](C)CN(C)C)c3nc12`: the GI50 in [2] was 0.0918 µM; in experiment [3], 0.102 µM; in [4], 0.0721 µM; in [5] it was 0.0929 µM; in experiment [6], 0.0579 µM; in experiment [7], 0.0654 µM. The GI50 in experiment [8] was 0.0528 µM; in experiment [9], 0.12 µM. In addition, the TGI in experiment [2] is 0.647 µM; in experiment [3] it was 0.511 µM; in [4] it was 0.554 µM; in experiment [5], 0.382 µM; in experiment [6] it was 0.279 µM; in experiment [7], 0.916 µM. Also, the TGI in experiment [8] worked out at 9.5 µM; in experiment [9], 7 µM.

As to `O=C(Nc1ccncc1)C(=O)c1cn(Cc2ccc(Cl)cc2)c2ccccc12`, the GI50 was 0.0788 µM in experiment [1]; 0.0416 µM in experiment [2]; 0.0267 µM in experiment [3]; 0.0317 µM in [4]; 0.0548 µM in [5]; 0.0489 µM in experiment [10]. The values for the GI50 in [7], in experiment [8] and in experiment [9] were 0.0775 µM, 0.0549 µM and 0.0331 µM, respectively. For the same molecule, the TGI in [1] is over 100 µM; in [2], over 100 µM; in [3] it was 0.0652 µM; in experiment [4] it was over 100 µM; in experiment [5], over 100 µM; in experiment [10], over 75.1 µM. The TGI in experiment [7], in [8] and in [9] was over 100 µM in each case.

Turning to `N#CCCN(CCCN(CCCN(C(=O)Nc1ccccc1)c1ccccc1)C(=O)Nc1ccccc1)C(=O)Nc1ccccc1`, the TGI was over 8.75 µM in [1]; over 100 µM in experiment [2]; over 100 µM in [3]; over 100 µM in [4]; 80.4 µM in experiment [10]; over 100 µM in experiment [7]. For the same molecule, the TGI in experiment [8] is over 100 µM; in experiment [9] it was > 8.75 µM and 43.1 µM. For the same molecule, the GI50 in [2] was 3.89 µM; in experiment [3] it was over 100 µM; in [4], over 100 µM; in experiment [7] it was 74.8 µM; in experiment [8], 85.2 µM; in experiment [9] it was 4.35 µM.

Turning to `CCCc1cc(=O)[nH]c(-n2nc(C)cc2C)n1`, the GI50 in [1] is 2.4 µM; in experiment [2], 5.16 µM; in [3] it was 7.43 µM; in experiment [4] it was 2.73 µM; in [6] it was 4.98 µM; in [7], 3.19 µM. The GI50 in experiment [8] was 2.41 µM; in experiment [9], 1.59 µM. Besides, the TGI was over 100 µM in experiment [1]; 28.4 µM in [2]; over 100 µM in experiment [3]; over 100 µM in experiment [4]; 30.7 µM in experiment [6]; over 100 µM in experiment [7]. Besides, the TGI was over 100 µM in [8] and 26.5 µM in [9].

In the case of `O=c1oc(Cl)c(Cl)c2ccccc12`, the GI50 in experiment [1] was 22.4 µM; in experiment [3], 11.7 µM; in [4], 18.1 µM; in experiment [5], 50.5 µM; in experiment [10], 3.25 µM; in [6], over 100 µM. For the same molecule, the GI50 in [7] is 38.2 µM; in experiment [8], 47.8 µM. The TGI was 47.9 µM in experiment [1]; 27.8 µM in experiment [3]; 41.3 µM in experiment [4]; over 100 µM in experiment [5]; 27.9 µM in experiment [10]; over 100 µM in experiment [6]. Further, the TGI in [7] and in experiment [8] was over 100 µM each time.

Consider `CCn1cc(C(=O)N/N=C/c2ccccc2)c(=O)c2cc(F)c(N3CCNC(C)C3)c(F)c21` (centres undefined), for which the GI50 in [1] is 1.55 µM; in experiment [3] it was 1.82 µM; in experiment [4], 1.76 µM; in experiment [10], 1.19 µM; in [7] it was 1.96 µM. Also, the TGI is 2.89 µM in experiment [1]; 3.3 µM in experiment [3]; 3.46 µM in experiment [4]; 2.46 µM in experiment [10]; 3.62 µM in experiment [7].
